The results in this text go back to patent US11040028B2, “Penicinotam derivative, preparation method and use thereof” (OCEAN UNIVERSITY OF CHINA, priority 2017, dated 2021).

Molecules are shown by their SMILES.

Usually IC50 stands for the concentration that gives 50% inhibition.

Holding throughout (type): cell-based
The test system of assay [1] is human embryonic lung fibroblast IMR-90. The assay is described as follows: Anti-fibrosis activity test: inhibition of proliferation of human embryonic lung fibroblast IMR-90 (CCK-8). Conditions: Homo sapiens; IMR-90 cells, 48 h, CCK-8. In short, it runs like this: (§1)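 Cells seeded at 2×10^4 cells/mL, adhered 24 h, then exposed to compound concentrations in triplicate for 48 h at 37° C, 5% CO2. CCK-8 added for 2 h, absorbance at 450 nm; inhibition = (1−Ai/Ao)×100% versus blank control, IC50 calculated.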

In assay [2] the test system is human lung fibroblasts HFL1. The assay is described as follows: Anti-fibrosis activity test: inhibition of proliferation of human lung fibroblasts HFL1 (CCK-8). Conditions: Homo sapiens, HFL1, 48 h, HFL1 cells, 48 h, CCK-8. In short, it runs like this:
as §1

For assay [3], the system named is human fibrosarcoma cells HT-1080. The assay is described as follows: Anti-fibrosis activity test: inhibition of proliferation of human fibrosarcoma cells HT-1080 (CCK-8). As to conditions: Homo sapiens, HT-1080, 48 h, HT-1080 cells, 48 h, CCK-8. In a few lines:
as §1

For assay [4], the system named is human dermal fibroblasts CCC-ESF-1. The assay is described as follows: Anti-fibrosis activity test: inhibition of proliferation of human dermal fibroblasts CCC-ESF-1 (CCK-8). As to conditions: Homo sapiens, Fibroblast; CCC-ESF-1 cells, 48 h, CCK-8. In short, it runs like this:
as §1

The test system of assay [5] is human hepatic stellate cells LX-2. The assay is described as follows: Anti-fibrosis activity test: inhibition of proliferation of human hepatic stellate cells LX-2 (CCK-8). As to conditions: Homo sapiens, LX-2, 48 h, LX-2 cells, 48 h, CCK-8. In a few lines:
as §1

For assay [6], the system named is BHK-21 cells. The assay is described as follows: Anti-fibrosis activity test: inhibition of BHK-21 cell proliferation (CCK-8). As to conditions: Mesocricetus auratus, BHK-21, 48 h, 48 h, CCK-8. In short, it runs like this: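 BHK-21 cells seeded at 2×10^4 cells/mL, allowed to adhere 24 h at 37° C, 5% CO2, then exposed to compounds at graded concentrations in triplicate for 48 h. CCK-8 added for 2 h and absorbance read at 450 nm; inhibition rate taken as (1−Ai/Ao)×100% and IC50 fitted.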

In assay [7] the test system is cardiac fibroblast RAT-iCell-C002. The assay is described as follows: Anti-fibrosis activity test: inhibition of proliferation of cardiac fibroblast RAT-iCell-C002 (CCK-8). As to conditions: Cardiac fibroblast, 48 h, RAT-iCell-C002 cells, CCK-8. In a few lines:
as §1

For assay [8], the system named is mouse macrophages (RAW264.7). The assay is described as follows: Lipopolysaccharide-induced NO secretion in macrophages (Griess). As to conditions: Mus musculus, RAW264.7, 24 h, RAW264.7, LPS 1 μg/ml, a/b isomers given as first/second symbol, read-out: IC50 (μM), inhibition of lipopolysaccharide-induced NO secretion in macrophages. In short, it runs like this: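 RAW264.7 macrophages in DMEM with 10% FBS received test samples at several concentrations and were stimulated with 1 μg/ml LPS for 24 h. NO in the supernatant was measured with the Griess reagent at 548 nm, […].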

Take `Cc1ccc(C)c2c(=O)c3c([nH]c12)C(=O)n1cccc1-3` [Compound 783a, 7,10-Dimethyl-5H-pyrrolizino[2,1-b]quinoline-5,11(6H)-dione]: the IC50 in assay [1] was 0.05 to 5 mM; in assay [2], 0.05 to 5 mM; in assay [3] it was 0.05 to 5 mM; in assay [4] it was 0.05 to 5 mM; in assay [5], 0.05 to 5 mM; in assay [6], under 0.05 mM. Besides, the values for the IC50 in assay [7] and in assay [8] were 0.05 to 5 mM and 1 to 10 µM, respectively.

Regarding `Cc1ccc(C)c2c(O)c3c(nc12)C(=O)n1cccc1-3` [Compound 783b, 11-hydroxy-7,10-dimethyl-5H-pyrrolizino[2,1-b]quinolin-5-one], the IC50 in assay [1], in assay [2], in assay [3], in assay [4], in assay [5] and in assay [6] was 0.05 to 5 mM each time. The results for the IC50 in assay [7] and in assay [8] were 0.05 to 5 mM and 1 to 10 µM, respectively.

Turning to `O=C1c2c(c(=O)c3ccccc3n2CCN2CCCCC2)-c2cccn21` [Compound 784a, 6-(2-(Piperidin-1-yl)ethyl)-5H-pyrrolizino[2,1-b]quinoline-5,11(6H)-dione], the IC50 in assay [1] is 0.05 to 5 mM; in assay [2], 0.05 to 5 mM; in assay [3], 0.05 to 5 mM; in assay [4], 0.05 to 5 mM; in assay [5], 0.05 to 5 mM; in assay [6], under 0.05 mM. Moreover, the concentration for half-maximal inhibition (IC50) in assay [7] fell in the range of 0.05 to 5 mM; in assay [8], 10 to 50 µM.

Take `O=C1c2nc3ccccc3c(OCCN3CCCCC3)c2-c2cccn21` [Compound 784b, 11-(2-(piperidin-1-yl)ethoxy)-5H-pyrrolizino[2,1-b]quinolin-5-one]: the half-maximal inhibitory concentration (IC50) in assay [1], in assay [2], in assay [3], in assay [4], in assay [5] and in assay [6] was 0.05 to 5 mM in each case. Moreover, the IC50 was 0.05 to 5 mM in assay [7] and 1 to 10 µM in assay [8].

`O=C1c2c(c(=O)c3ccccc3n2CCN2CCOCC2)-c2cccn21` [Compound 785a, 6-(2-Morpholinoethyl)-5H-pyrrolizino[2,1-b]quinoline-5,11(6H)-dione]: the IC50 in assay [1] was 0.05 to 5 mM; in assay [2], 0.05 to 5 mM; in assay [3], under 0.05 mM; in assay [4], 0.05 to 5 mM; in assay [5] it was 0.05 to 5 mM; in assay [6], 0.05 to 5 mM. For the same compound, the IC50 was in the range of 0.05 to 5 mM in assay [7] and 1 to 10 µM in assay [8].

With `O=C1c2nc3ccccc3c(OCCN3CCOCC3)c2-c2cccn21` [Compound 785b, 11-(2-morpholinoethoxy)-5H-pyrrolizino[2,1-b]quinolin-5-one], the IC50 in assay [1], in assay [2], in assay [3], in assay [4], in assay [5] and in assay [6] was 0.05 to 5 mM each time. The figures for the IC50 in assay [7] and in assay [8] were 0.05 to 5 mM and 1 to 10 µM, respectively.

Regarding `O=C1c2c(c(=O)c3ccccc3n2CCCN2CCCCC2)-c2cccn21` [Compound 786a, 6-(3-(Piperidin-1-yl)propyl)-5H-pyrrolizino[2,1-b]quinoline-5,11(6H)-dione], the half-maximal inhibitory concentration (IC50) in assay [1], in assay [2], in assay [3], in assay [4], in assay [5] and in assay [6] was 0.05 to 5 mM each time. Besides, the IC50 in assay [7] was 0.05 to 5 mM; in assay [8], 1 to 10 µM.

Consider `O=C1c2nc3ccccc3c(OCCCN3CCCCC3)c2-c2cccn21` [Compound 786b, 11-(3-(piperidin-1-yl)propoxy)-5H-pyrrolizino[2,1-b]quinolin-5-one], for which the 50% inhibitory concentration (IC50) in assay [1], in assay [2], in assay [3], in assay [4], in assay [5] and in assay [6] was 0.05 to 5 mM each time. The IC50 in assay [7] lay in the range of 0.05 to 5 mM; in assay [8], 1 to 10 µM.

With `O=C1c2c(c(=O)c3ccccc3n2CCCCN2CCCCC2)-c2cccn21` [Compound 788a, 6-(4-(Piperidin-1-yl)butyl)-5H-pyrrolizino[2,1-b]quinoline-5,11(6H)-dione], the IC50 in assay [1], in assay [2], in assay [3], in assay [4], in assay [5] and in assay [6] was 0.05 to 5 mM in each case. Besides, the IC50 in assay [7] fell in the range of 0.05 to 5 mM; in assay [8] it was 1 to 10 µM.

Regarding `O=C1c2nc3ccccc3c(OCCCCN3CCCCC3)c2-c2cccn21` [Compound 788b, 11-(4-(piperidin-1-yl)butoxy)-5H-pyrrolizino[2,1-b]quinolin-5-one], the IC50 in assay [1], in assay [2], in assay [3], in assay [4], in assay [5] and in assay [6] was 0.05 to 5 mM each time. Also, the half-inhibitory concentration (IC50) in assay [7] lay within 0.05 to 5 mM; in assay [8] it was 1 to 10 µM.

As for `O=C1c2c(c(=O)c3ccccc3n2CCCCN2CCOCC2)-c2cccn21` [Compound 789a, 6-(4-Morpholinobutyl)-5H-pyrrolizino[2,1-b]quinoline-5,11(6H)-dione], the IC50 in assay [1], in assay [2], in assay [3], in assay [4], in assay [5] and in assay [6] was 0.05 to 5 mM throughout. Moreover, the 50% inhibitory concentration (IC50) lay within 0.05 to 5 mM in assay [7] and 1 to 10 µM in assay [8].

For the compound `O=C1c2nc3ccccc3c(OCCCCN3CCOCC3)c2-c2cccn21` [Compound 789b, 11-(4-morpholinobutoxy)-5H-pyrrolizino[2,1-b]quinolin-5-one], the IC50 in assay [1], in assay [2], in assay [3], in assay [4], in assay [5] and in assay [6] was 0.05 to 5 mM throughout. The IC50 is 0.05 to 5 mM in assay [7] and 1 to 10 µM in assay [8].

Turning to `CCCOCCn1c2c(c(=O)c3ccccc31)-c1cccn1C2=O` [Compound 790a, 6-(2-Propoxyethyl)-5H-pyrrolizino[2,1-b]quinoline-5,11(6H)-dione], the IC50 in assay [1], in assay [2], in assay [3], in assay [4], in assay [5] and in assay [6] was 0.05 to 5 mM throughout. The IC50 was 0.05 to 5 mM in assay [7] and 1 to 10 µM in assay [8].

Regarding `CCCOCCOc1c2c(nc3ccccc13)C(=O)n1cccc1-2` [Compound 790b, 11-(2-propoxyethoxy)-5H-pyrrolizino[2,1-b]quinolin-5-one], the concentration for half-maximal inhibition (IC50) in assay [1], in assay [2], in assay [3], in assay [4], in assay [5] and in assay [6] was 0.05 to 5 mM throughout. Besides, the IC50 lay in the range of 0.05 to 5 mM in assay [7] and 1 to 10 µM in assay [8].

For `CCOCCCn1c2c(c(=O)c3ccccc31)-c1cccn1C2=O` [Compound 791a, 6-(3-Ethoxypropyl)-5H-pyrrolizino[2,1-b]quinoline-5,11(6H)-dione], the 50% inhibitory concentration (IC50) in assay [1] was 0.05 to 5 mM; in assay [2], 0.05 to 5 mM; in assay [3], 0.05 to 5 mM; in assay [4], 0.05 to 5 mM; in assay [5], 0.05 to 5 mM; in assay [6], under 0.05 mM. Moreover, the half-maximal inhibitory concentration (IC50) is 0.05 to 5 mM in assay [7] and 1 to 10 µM in assay [8].
